# Assay results from publication PMC9606955, “In Vitro Activity of Essential Oils Distilled from Colombian Plants against Candida auris and Other Candida Species with Different Antifungal Susceptibility Profiles” (Molecules, 2022).
# Key:
# C. tropicalis ATCC 750 = test: MIC, CLSI M27 broth microdilution; assay type: cell-based, Candida tropicalis; conditions: antifungal drugs; for MIC: Candida tropicalis, ATCC750, geometric mean
# Source text: (§1) The fungal strains used in this study were C. albicans ATCC 10231, C. albicans ATCC 64550, C. parapsilosis ATCC 22019, C. tropicalis ATCC 750, C. tropicalis ATCC 200956 (resistant to azoles and AMB), C. glabrata LMDM 34 (resistant to echinocandins), C. metapsilosis MUM 15.12, C. orthopsilosis MUM 17.13, C. lusitaniae MUM 17.08, C. krusei ATCC 6258 (Issatchenkia orientalis ATCC 6258), and C. auris CDC B11903. Additionally, nine clinical isolates were included: C. parapsilosis Synlab 406 (FLC-resistant) and eight C. auris isolates identified by MALDI-TOF MS (Bruker Daltonics, Bremen, Germany) according to Zhao et al.. These yeasts were cultured on Sabouraud Dextrose Agar (SDA; Sigma-Aldrich, St. Louis, MO, USA) for 24 h at 35 °C.
# (§2) Antifungal susceptibility testing was performed according to Clinical and Laboratory Standards Institute M27, 4th Edition (CLSI standard M27, 4th Edition). Some modifications were applied for evaluation of the antifungal activity of EOs and terpenes. Initially, a screening was carried out to determine the antifungal activity of the EOs and of commercial terpenes. Stock concentrations of EOs and terpenes were prepared at 512 µg/mL and an inoculum of 2.5 × 10^3 CFU/mL of each yeast was prepared in RPMI 1640-MOPS (Sigma- Aldrich St. Louis, MO, USA). Thereafter, 100 µL of each stock solution of EOs or terpenes was dispensed in 96-well microdilution plates (Corning®, Costar®, NY, USA) and 100 µL of each yeast inoculum was added. […] Microdilution plates were incubated at 35 °C and, after 24 h, the presence or absence of growth was visually checked using a manual mirror viewer and then compared with the amount of growth in the control (no EO or terpene). Compounds able to inhibit yeast growth were tested to determine the minimal inhibitory concentration (MIC) as follows: 100 µL of 10 two-fold dilutions of the EOs or commercial terpenes was dispensed in 96-well microplates and the yeast inoculum was added. Final concentrations of the EOs or terpenes ranged from 0.5 µg/mL to 256 µg/mL. Microdilution plates were incubated at 35 °C for 24 h. MICs were visually determined at the lowest concentration that produced visual inhibition compared to the growth control. The assays were performed at least three times in duplicate on different days. The results were expressed as geometric means (GM) and ranges. As an antifungal susceptibility testing control, the activity of ITC and AMB against the reference strains C. krusei ATCC 6258 and C. parapsilosis ATCC 22019 was evaluated in all experiments following the CLSI standard M27, 4th Edition. It was mandatory that the MIC values remained in the accepted range.
# [1] = test system: C. tropicalis ATCC 200956; test: MIC, CLSI M27 broth microdilution; assay type: cell-based, Candida tropicalis; conditions: C. tropicalis ATCC 200956, antifungal drugs; for MIC: Candida tropicalis, ATCC200956, geometric mean, read-out: MIC GM
# Source text: as §1, §2
# C. auris Ca 1 = test: MIC, CLSI M27 broth microdilution; assay type: cell-based, Candida auris; conditions: C. auris Ca 1, antifungal drugs; for MIC: Candidozyma auris, CA1, geometric mean, read-out: MIC GM
# Source text: as §1, §2
# C. auris Ca 10 = test: MIC, CLSI M27 broth microdilution; assay type: cell-based, Candida auris; conditions: antifungal drugs; for MIC: Candidozyma auris, CA10, geometric mean
# Source text: as §1, §2
# C. auris CDC B11903 = test: MIC, CLSI M27 broth microdilution; assay type: cell-based, Candida auris; conditions: C. auris CDCB11903, antifungal drugs; for MIC: Candidozyma auris, geometric mean, read-out: MIC GM
# Source text: as §1, §2
# C. auris Ca 45 = test: MIC, CLSI M27 broth microdilution; assay type: cell-based, Candida auris; conditions: C. auris Ca 45, antifungal drugs; for MIC: Candidozyma auris, CA45, geometric mean, read-out: MIC GM
# Source text: as §1, §2
# C. auris Ca 9 = test: MIC, CLSI M27 broth microdilution; assay type: cell-based, Candida auris; conditions: C. auris Ca 9, antifungal drugs; for MIC: Candidozyma auris, CA9, geometric mean, read-out: MIC GM
# Source text: as §1, §2
# C. auris Ca 46 = test: MIC, CLSI M27 broth microdilution; assay type: cell-based, Candida auris; conditions: C. auris Ca 46, antifungal drugs; for MIC: Candidozyma auris, CA46, geometric mean, read-out: MIC GM
# Source text: as §1, §2
# C. auris Ca 17 = test: MIC, CLSI M27 broth microdilution; assay type: cell-based, Candida auris; conditions: C. auris Ca 17, antifungal drugs; for MIC: Candidozyma auris, CA17, geometric mean, read-out: MIC GM
# Source text: as §1, §2
# C. auris Ca 41 = test: MIC, CLSI M27 broth microdilution; assay type: cell-based, Candida auris; conditions: C. auris Ca 41, antifungal drugs; for MIC: Candidozyma auris, CA41, geometric mean, read-out: MIC GM
# Source text: as §1, §2
# C. auris Ca 32 = test: MIC, CLSI M27 broth microdilution; assay type: cell-based, Candida auris; conditions: C. auris Ca 32, antifungal drugs; for MIC: Candidozyma auris, CA32, geometric mean, read-out: MIC GM
# Source text: as §1, §2
# [2] = test system: C. parapsilosis Synlab 406; test: MIC, CLSI M27 broth microdilution; assay type: cell-based, Candida parapsilosis; conditions: C. parapsilosis Synlab 406, antifungal drugs; for MIC: Lodderomyces parapsilosis, SYNLAB406, geometric mean, read-out: MIC GM
# Source text: as §1, §2
# [3] = test system: C. parapsilosis ATCC 22019; test: MIC, CLSI M27 broth microdilution; assay type: cell-based, Candida parapsilosis; conditions: antifungal drugs; for MIC: Lodderomyces parapsilosis, ATCC22019, geometric mean
# Source text: as §1, §2
# C. lusitaniae MUM 17.08 = test: MIC, CLSI M27 broth microdilution; assay type: cell-based, Candida lusitaniae; conditions: C. lusitaniae MUM 17.08, antifungal drugs; for MIC: Clavispora lusitaniae, MUM17.08, geometric mean, read-out: MIC GM
# Source text: as §1, §2
# [4] = test system: C. orthopsilosis MUM 17.13; test: MIC, CLSI M27 broth microdilution; assay type: cell-based, Candida orthopsilosis; conditions: C. orthopsilosis MUM 17.13, antifungal drugs; for MIC: Lodderomyces orthopsilosis, MUM17.13, geometric mean, read-out: MIC GM
# Source text: as §1, §2
# C. albicans ATCC 10231 = test: MIC, CLSI M27 broth microdilution; assay type: cell-based, Candida albicans; conditions: antifungal drugs; for MIC: Candida albicans, ATCC10231, geometric mean
# Source text: as §1, §2
# C. albicans ATCC 64550 = test: MIC, CLSI M27 broth microdilution; assay type: cell-based, Candida albicans; conditions: antifungal drugs; for MIC: Candida albicans, ATCC64550, geometric mean
# Source text: as §1, §2
# C. krusei ATCC 6258 = test: MIC, CLSI M27 broth microdilution; assay type: cell-based, Candida krusei; conditions: C. krusei ATCC 6258, antifungal drugs; for MIC: Pichia kudriavzevii, ATCC6258, geometric mean, read-out: MIC GM
# Source text: as §1, §2
# [5] = test system: C. metapsilosis MUM 15.12; test: MIC, CLSI M27 broth microdilution; assay type: cell-based, Candida metapsilosis; conditions: C. metapsilosis MUM 15.12, antifungal drugs; for MIC: Lodderomyces metapsilosis, MUM15.12, geometric mean, read-out: MIC GM
# Source text: as §1, §2
# C. glabrata LMDM 34 = test: MIC, CLSI M27 broth microdilution; assay type: cell-based, Candida glabrata; conditions: for MIC: Nakaseomyces glabratus, LMDM34, geometric mean; for MIC / MIC Range: antifungal drugs
# Source text: as §1, §2
# C. auris = test: Screening of antifungal activity at 256 µg/mL against C. auris; assay type: cell-based, Candida auris; conditions: screening at 256 µg/mL, clinical isolates of C. auris
# Source text: as §1
# Antifungal susceptibility testing was performed according to Clinical and Laboratory Standards Institute M27, 4th Edition (CLSI standard M27, 4th Edition). Some modifications were applied for evaluation of the antifungal activity of EOs and terpenes. Initially, a screening was carried out to determine the antifungal activity of the EOs and of commercial terpenes. Stock concentrations of EOs and terpenes were prepared at 512 µg/mL and an inoculum of 2.5 × 10^3 CFU/mL of each yeast was prepared in RPMI 1640-MOPS (Sigma- Aldrich St. Louis, MO, USA). Thereafter, 100 µL of each stock solution of EOs or terpenes was dispensed in 96-well microdilution plates (Corning®, Costar®, NY, USA) and 100 µL of each yeast inoculum was added. […] MICs were visually determined at the lowest concentration that produced visual inhibition compared to the growth control. […] The results were expressed as geometric means (GM) and ranges. As an antifungal susceptibility testing control, the activity of ITC and AMB against the reference strains C. krusei ATCC 6258 and C. parapsilosis ATCC 22019 was evaluated in all experiments following the CLSI standard M27, 4th Edition. […]
structure (smiles),measurement,setting,value
"CC[C@H](C)C[C@H](C)CCCCCCCCC(=O)N[C@H]1C[C@@H](O)[C@@H](NCCN)NC(=O)[C@@H]2[C@@H](O)CCN2C(=O)[C@H]([C@H](O)CCN)NC(=O)[C@H]([C@H](O)[C@@H](O)c2ccc(O)cc2)NC(=O)[C@@H]2C[C@@H](O)CN2C(=O)[C@H]([C@@H](C)O)NC1=O [CSF, caspofungin]",MIC,C. tropicalis ATCC 750,0.35 µg/mL
same,MIC Range,C. tropicalis ATCC 750,0.25 to 0.5 µg/mL
same,MIC Range,[1],0.5 µg/mL
same,MIC,[1],0.5 µg/mL
same,MIC Range,C. auris Ca 1,0.5 µg/mL
same,MIC,C. auris Ca 1,0.5 µg/mL
same,MIC,C. auris Ca 10,0.7 µg/mL
same,MIC Range,C. auris Ca 10,0.5 to 1 µg/mL
same,MIC Range,C. auris CDC B11903,0.5 µg/mL
same,MIC,C. auris CDC B11903,0.5 µg/mL
same,MIC Range,C. auris Ca 45,0.5 µg/mL
same,MIC,C. auris Ca 45,0.5 µg/mL
same,MIC Range,C. auris Ca 9,0.5 µg/mL
same,MIC,C. auris Ca 9,0.5 µg/mL
same,MIC Range,C. auris Ca 46,0.5 µg/mL
same,MIC,C. auris Ca 46,0.5 µg/mL
same,MIC Range,C. auris Ca 17,0.5 µg/mL
same,MIC,C. auris Ca 17,0.5 µg/mL
same,MIC Range,C. auris Ca 41,0.5 µg/mL
same,MIC,C. auris Ca 41,0.5 µg/mL
same,MIC Range,C. auris Ca 32,0.5 µg/mL
same,MIC,C. auris Ca 32,0.5 µg/mL
same,MIC Range,[2],2 µg/mL
same,MIC,[2],2 µg/mL
same,MIC,[3],1 µg/mL
same,MIC Range,[3],1 µg/mL
same,MIC Range,C. lusitaniae MUM 17.08,1 µg/mL
same,MIC,C. lusitaniae MUM 17.08,1 µg/mL
same,MIC Range,[4],1 µg/mL
same,MIC,[4],1 µg/mL
same,MIC,C. albicans ATCC 10231,0.18 µg/mL
same,MIC Range,C. albicans ATCC 10231,0.12 to 0.25 µg/mL
same,MIC,C. albicans ATCC 64550,0.35 µg/mL
same,MIC Range,C. albicans ATCC 64550,0.25 to 0.5 µg/mL
same,MIC Range,C. krusei ATCC 6258,1 µg/mL
same,MIC,C. krusei ATCC 6258,1 µg/mL
same,MIC Range,[5],1 µg/mL
same,MIC,[5],1 µg/mL
same,MIC,C. glabrata LMDM 34,8 µg/mL
same,MIC Range,C. glabrata LMDM 34,8 µg/mL
same,susceptibility category,C. glabrata LMDM 34; resistance confirmed,resistance
"CCC(C)n1ncn(-c2ccc(N3CCN(c4ccc(OCC5COC(Cn6cncn6)(c6ccc(Cl)cc6Cl)O5)cc4)CC3)cc2)c1=O (stereo not shown) [ITC, itraconazole]",MIC,C. tropicalis ATCC 750,0.12 µg/mL
same,MIC Range,C. tropicalis ATCC 750,0.06 to 0.25 µg/mL
same,MIC Range,[1],>16 µg/mL
same,MIC,[1],> 16 µg/mL
same,MIC Range,C. auris Ca 1,0.03 to 0.12 µg/mL
same,MIC,C. auris Ca 1,0.06 µg/mL
same,MIC,C. auris Ca 10,0.09 µg/mL
same,MIC Range,C. auris Ca 10,0.06 to 0.12 µg/mL
same,MIC Range,C. auris CDC B11903,0.06 to 0.12 µg/mL
same,MIC,C. auris CDC B11903,0.04 µg/mL
same,MIC Range,C. auris Ca 45,0.06 to 0.12 µg/mL
same,MIC,C. auris Ca 45,0.04 µg/mL
same,MIC Range,C. auris Ca 9,0.03 to 0.12 µg/mL
same,MIC,C. auris Ca 9,0.06 µg/mL
same,MIC Range,C. auris Ca 46,0.06 to 0.12 µg/mL
same,MIC,C. auris Ca 46,0.04 µg/mL
same,MIC Range,C. auris Ca 17,0.12 to 0.5 µg/mL
same,MIC,C. auris Ca 17,0.25 µg/mL
same,MIC Range,C. auris Ca 41,0.03 to 0.12 µg/mL
same,MIC,C. auris Ca 41,0.06 µg/mL
same,MIC Range,C. auris Ca 32,0.25 to 0.50 µg/mL
same,MIC,C. auris Ca 32,0.35 µg/mL
same,MIC Range,[2],0.5 to 1 µg/mL
same,MIC,[2],0.7 µg/mL
same,MIC,[3],0.35 µg/mL
same,MIC Range,[3],0.25 to 0.50 µg/mL
same,MIC Range,C. lusitaniae MUM 17.08,0.03 to 0.06 µg/mL
same,MIC,C. lusitaniae MUM 17.08,0.04 µg/mL
same,MIC Range,[4],0.12 µg/mL
same,MIC,[4],0.12 µg/mL
same,MIC,C. albicans ATCC 10231,0.06 µg/mL
same,MIC Range,C. albicans ATCC 10231,0.03 to 0.125 µg/mL
same,MIC,C. albicans ATCC 64550,0.7 µg/mL
same,MIC Range,C. albicans ATCC 64550,0.5 to 1 µg/mL
same,MIC Range,C. krusei ATCC 6258,0.12 to 0.50 µg/mL
same,MIC,C. krusei ATCC 6258,0.28 µg/mL
same,MIC Range,[5],0.06 to 0.12 µg/mL
same,MIC,[5],0.09 µg/mL
same,MIC,C. glabrata LMDM 34,1 µg/mL
same,MIC Range,C. glabrata LMDM 34,1 µg/mL
CC1=CC(=O)[C@@H]2C[C@H]1C2(C)C [verbenone],antifungal activity in screening against C. auris,C. auris,active against only some of the clinical isolates of C. auris
